Results published in US20250108038A1 (priority 2023, published 2025).
Where “and” joins values, the source holds several entries; their conditions need not be identical. Equal values may be shown once.

System: Long Evans rats
Assay: Behavioral satiety sequence (BSS)
Type: in vivo, Long Evans rat
Text: The Behavioural Satiety Sequence (BSS) is a technique used to evaluate physiological satiety. It is based on the expression of a sequence of behaviors including eating, grooming, locomotor activity, followed by resting, which are typically observed in rodents post-ingestion (Halford et al, 1998, Pharmacology Biochemistry and Behaviour. 61(2): 159-168). The BSS is a widely used model for determining the effects of novel pharmaceuticals on food intake and measures of satiety in rodents (Oliveira et al, 2011, Revista de Nutrição. 24(4) 619-628), and to discriminate the cause of reduced food intake following pharmacological manipulation. For example, treatments that may reduce food intake by non-specific mechanisms, such as immobility, malaise, and taste adulteration, will disrupt this sequence (Halford et al, 1998, Pharmacology Biochemistry and Behaviour. 61(2): 159-168).
Specifically, 12 male Long-Evans rats were food-deprived for 22 h with a 2 h feeding period each day. Rats were trained to consume daily food during the 2 h period over 25 days. The testing phase was initiated once the rats consistently consumed 16-18 g of food per day with ≤10% variance in amount of feed consumed. Feeding took place in designated individual boxes in a quiet room separate from the housing room. Continuous remote monitoring via video camera during feeding was used to assess the BSS. Food consumption was measured by weighing the total available food before and after the 2 h feeding window, correcting for spillage. Lorcaserin (1 mg/kg) was included as a reference control (Higgins et al, 2011, Neuropsychopharmacology. 37(5): 1177-1191). Subjects were tested using a repeated-measures, Latin square design with 2-3 days wash-out between treatment cycles.
On scheduled test days, animals were monitored remotely via video camera during the feeding access period. The occurrence of four mutually exclusive behaviors (eating/drinking, grooming, active, rest) were individually scored. Over the 2 h feeding period, behaviors were assessed every 30 seconds. Scores were compiled into 23 5 min timebins (timebin 24 was removed due to early removal of animals) and the frequency of each behavior within each timebin was calculated to determine a temporal frequency of each measure (Rodgers et al, 2010, Pharmacology Biochemistry and Behaviour. 97: 3-14). Percentage time was plotted for each behavioral sequence in each timebin to compare between treatment groups (Higgins et al, 2011, Neuropsychopharmacology. 37(5): 1177-1191).

[1] = 3 mg/kg, raw data per animal (LT-1 to LT-12)
[2] = Compound I-19 0.1 mg/kg, AVG of animals LT-1 to LT-12
[3] = Compound I-19 0.1 mg/kg, AVG of animals LT-1 to LT-12, 0-0.5 hours

Clc1ccc(C2(OCC3OCCO3)c3ccccc3C3=NCCN32)cc1 (stereo not drawn) [Compound I-19]
BSS scoring E (eating/drinking), Time Bin 19 (90-95 TOTAL), AVG (3 mg/kg, AVG of LT-1 to LT-12): 0.59
BSS scoring E (eating/drinking), Time Bin 20 (95-100 TOTAL), AVG (3 mg/kg, AVG of LT-1 to LT-12): 0.62
BSS scoring E (eating/drinking), Time Bin 21 (100-105 TOTAL), AVG (3 mg/kg, AVG of LT-1 to LT-12): 0.56
BSS scoring E (eating/drinking), Time Bin 22 (105-110 TOTAL), AVG (3 mg/kg, AVG of LT-1 to LT-12): 0.52
BSS scoring E (eating/drinking), Time Bin 23 (110-115 TOTAL), AVG (3 mg/kg, AVG of LT-1 to LT-12): 0.58
BSS scoring E (eating/drinking), Time Bin 24 (115-120 TOTAL), AVG (3 mg/kg, AVG of LT-1 to LT-12): 0.37
BSS scoring G (grooming), Time Bin 19 (90-95 TOTAL), AVG (3 mg/kg, AVG of LT-1 to LT-12): 0.05
BSS scoring G (grooming), Time Bin 20 (95-100 TOTAL), AVG (3 mg/kg, AVG of LT-1 to LT-12): 0.04
BSS scoring G (grooming), Time Bin 21 (100-105 TOTAL), AVG (3 mg/kg, AVG of LT-1 to LT-12): 0.06
BSS scoring G (grooming), Time Bin 22 (105-110 TOTAL), AVG (3 mg/kg, AVG of LT-1 to LT-12): 0.07
BSS scoring G (grooming), Time Bin 23 (110-115 TOTAL), AVG (3 mg/kg, AVG of LT-1 to LT-12): 0.02
BSS scoring G (grooming), Time Bin 24 (115-120 TOTAL), AVG (3 mg/kg, AVG of LT-1 to LT-12): 0.02
BSS scoring R (resting), Time Bin 19 (90-95 TOTAL), AVG (3 mg/kg, AVG of LT-1 to LT-12): 0.18
BSS scoring R (resting), Time Bin 20 (95-100 TOTAL), AVG (3 mg/kg, AVG of LT-1 to LT-12): 0.15
BSS scoring R (resting), Time Bin 21 (100-105 TOTAL), AVG (3 mg/kg, AVG of LT-1 to LT-12): 0.16
BSS scoring R (resting), Time Bin 22 (105-110 TOTAL), AVG (3 mg/kg, AVG of LT-1 to LT-12): 0.22
BSS scoring R (resting), Time Bin 23 (110-115 TOTAL), AVG (3 mg/kg, AVG of LT-1 to LT-12): 0.22
BSS scoring R (resting), Time Bin 24 (115-120 TOTAL), AVG (3 mg/kg, AVG of LT-1 to LT-12): 0.18
BSS scoring A (active), Time Bin 19 (90-95 TOTAL) [1]: 0 (3×) and 1 (2×) and 2 (5×) and 4 and 5
BSS scoring A (active), Time Bin 20 (95-100 TOTAL) [1]: 5 and 0 (5×) and 3 and 4 (3×) and 1 and 2
BSS scoring A (active), Time Bin 21 (100-105 TOTAL) [1]: 7 and 0 (6×) and 1 and 5 (3×) and 3
BSS scoring A (active), Time Bin 22 (105-110 TOTAL) [1]: 0 (5×) and 1 and 3 (2×) and 5 and 2 (2×) and 8
BSS scoring A (active), Time Bin 23 (110-115 TOTAL) [1]: 0 (6×) and 3 (2×) and 5 (2×) and 1 and 6
BSS scoring A (active), Time Bin 24 (115-120 TOTAL) [1]: 3 and 0 (3×) and 2 (3×) and 7 (2×) and 1 and 4 (2×)
BSS scoring E (eating/drinking), Time Bin 19 (90-95 TOTAL) [1]: 7 (2×) and 8 (2×) and 9 and 6 and 0 and 1 and 5 (3×) and 10
BSS scoring E (eating/drinking), Time Bin 20 (95-100 TOTAL) [1]: 4 (3×) and 10 and 5 and 8 (2×) and 9 (2×) and 0 and 7 and 6
BSS scoring E (eating/drinking), Time Bin 21 (100-105 TOTAL) [1]: 3 and 10 (2×) and 9 (3×) and 7 (2×) and 0 (2×) and 1 and 2
BSS scoring E (eating/drinking), Time Bin 22 (105-110 TOTAL) [1]: 8 and 5 and 7 (3×) and 9 (2×) and 0 (2×) and 3 (2×) and 4
BSS scoring E (eating/drinking), Time Bin 23 (110-115 TOTAL) [1]: 10 (3×) and 6 and 0 (2×) and 8 (2×) and 4 and 3 and 5 (2×)
BSS scoring E (eating/drinking), Time Bin 24 (115-120 TOTAL) [1]: 6 and 0 (3×) and 8 and 4 (2×) and 7 and 2 (2×) and 1 and 10
BSS scoring G (grooming), Time Bin 19 (90-95 TOTAL) [1]: 0 (8×) and 2 (2×) and 1 (2×)
BSS scoring G (grooming), Time Bin 20 (95-100 TOTAL) [1]: 0 (8×) and 1 (3×) and 2
BSS scoring G (grooming), Time Bin 21 (100-105 TOTAL) [1]: 0 (8×) and 1 and 2 (3×)
BSS scoring G (grooming), Time Bin 22 (105-110 TOTAL) [1]: 0 (8×) and 2 (2×) and 1 and 3
BSS scoring G (grooming), Time Bin 23 (110-115 TOTAL) [1]: 0 (10×) and 1 (2×)
BSS scoring G (grooming), Time Bin 24 (115-120 TOTAL) [1]: 0 (10×) and 1 (2×)
BSS scoring R (resting), Time Bin 19 (90-95 TOTAL) [1]: 3 and 0 (5×) and 2 and 1 (3×) and 8 and 6
BSS scoring R (resting), Time Bin 20 (95-100 TOTAL) [1]: 1 (4×) and 0 (4×) and 2 (3×) and 8
BSS scoring R (resting), Time Bin 21 (100-105 TOTAL) [1]: 0 (5×) and 3 (2×) and 6 and 1 (3×) and 4
BSS scoring R (resting), Time Bin 22 (105-110 TOTAL) [1]: 2 (3×) and 0 (2×) and 1 (5×) and 10 and 5
BSS scoring R (resting), Time Bin 23 (110-115 TOTAL) [1]: 0 (5×) and 10 and 1 (2×) and 5 (2×) and 2 (2×)
BSS scoring R (resting), Time Bin 24 (115-120 TOTAL) [1]: 1 (3×) and 0 (4×) and 2 (2×) and 4 (2×) and 7
BSS scoring A (active), Time Bin 19 (90-95 TOTAL), AVG [2]: 0.30
BSS scoring A (active), Time Bin 20 (95-100 TOTAL), AVG [2]: 0.13
BSS scoring A (active), Time Bin 21 (100-105 TOTAL), AVG [2]: 0.08
BSS scoring A (active), Time Bin 22 (105-110 TOTAL), AVG [2]: 0.13
BSS scoring A (active), Time Bin 23 (110-115 TOTAL), AVG [2]: 0.21
BSS scoring A (active), Time Bin 24 (115-120 TOTAL), AVG [2]: 0.16
BSS scoring E (eating/drinking), Time Bin 19 (90-95 TOTAL), AVG [2]: 0.52
BSS scoring E (eating/drinking), Time Bin 20 (95-100 TOTAL), AVG [2]: 0.68
BSS scoring E (eating/drinking), Time Bin 21 (100-105 TOTAL), AVG [2]: 0.73
BSS scoring E (eating/drinking), Time Bin 22 (105-110 TOTAL), AVG [2]: 0.68
BSS scoring E (eating/drinking), Time Bin 23 (110-115 TOTAL), AVG [2]: 0.64
BSS scoring E (eating/drinking), Time Bin 24 (115-120 TOTAL), AVG [2]: 0.52
BSS scoring G (grooming), Time Bin 19 (90-95 TOTAL), AVG [2]: 0.03
BSS scoring G (grooming), Time Bin 20 (95-100 TOTAL), AVG [2]: 0.05
BSS scoring G (grooming), Time Bin 21 (100-105 TOTAL), AVG [2]: 0.04
BSS scoring G (grooming), Time Bin 22 (105-110 TOTAL), AVG [2]: 0.04
BSS scoring G (grooming), Time Bin 23 (110-115 TOTAL), AVG [2]: 0.03
BSS scoring G (grooming), Time Bin 24 (115-120 TOTAL), AVG [2]: 0.03
BSS scoring R (resting), Time Bin 19 (90-95 TOTAL), AVG [2]: 0.15
BSS scoring R (resting), Time Bin 20 (95-100 TOTAL), AVG [2]: 0.14
BSS scoring R (resting), Time Bin 21 (100-105 TOTAL), AVG [2]: 0.15
BSS scoring R (resting), Time Bin 22 (105-110 TOTAL), AVG [2]: 0.15
BSS scoring R (resting), Time Bin 23 (110-115 TOTAL), AVG [2]: 0.12
BSS scoring R (resting), Time Bin 24 (115-120 TOTAL), AVG [2]: 0.13
BSS scoring A (active), Time Bin 1 (0-5 TOTAL), AVG [3]: 0.09
BSS scoring A (active), Time Bin 2 (5-10 TOTAL), AVG [3]: 0.04
BSS scoring A (active), Time Bin 3 (10-15 TOTAL), AVG [3]: 0.03
BSS scoring A (active), Time Bin 4 (15-20 TOTAL), AVG [3]: 0.09
BSS scoring A (active), Time Bin 5 (20-25 TOTAL), AVG [3]: 0.08
BSS scoring A (active), Time Bin 6 (25-30 TOTAL), AVG [3]: 0.13
BSS scoring E (eating/drinking), Time Bin 1 (0-5 TOTAL), AVG [3]: 0.89
BSS scoring E (eating/drinking), Time Bin 2 (5-10 TOTAL), AVG [3]: 0.96
BSS scoring E (eating/drinking), Time Bin 3 (10-15 TOTAL), AVG [3]: 0.95
